{
  "source": "patent US11541237B2",
  "about": "“Methods for improving shoulder range of motion and functionality” (priority 2013, dated 2023)",
  "key": {"[1]": {"system": "A (delta) and C sensory fibers", "settings": "cited from earlier work; for sensory blocking properties: compared with the corresponding R (dextro)-enantiomers"}, "[2]": {"settings": "cited from earlier work"}, "[3]": {"system": "facial pain / facial neuropathies", "experiment": "Intranasal local anesthetic in patients with facial pain after facial trauma (Examples 4-6)", "format": "in vivo, human", "protocol": "A patient had severe facial pain following a large metal beam impact which left them with facial neuropathies and headache that adversely affected their ability to eat and speak was treated with intranasal bupivacaine 0.5% (4 ml). […] They improved with subsequent repeat treatments and was able to perform job and daily activities normally. […] A patient with severe facial pain resulting from being hit in the face with a pipe that caused four facial fractures, for seven years had numbness in certain areas of their face and severe pain in the area of their left eye, as well as generalized facial and head pain. They were treated with intranasal bupivacaine 0.5% (4 ml). […] A patient had sustained facial nerve injuries from a close range gunshot wound to the face. They were in excruciating pain and could not speak or eat without severe duress. […] They had been in agony for over 5 years previous to this treatment."}, "radial nerve": {"system": "radial nerve", "experiment": "Injection in fanlike distribution of the radial nerve, patient with CRPS of right hand (Example 3)", "format": "in vivo, human", "settings": "single treatment, bupivacaine 0.25% (3 ml)", "from_the_text": "A patient with CRPS and severe pain, including pins and needles sensation in their right hand for over 20 years, presented with these symptoms and major discoloration in their right arm due to compartment syndrome many years ago and could barely open and close their fist."}, "[4]": {"system": "Supratrochlear nerve / occipital nerves with SPG", "experiment": "Injection of supratrochlear or occipital nerves combined with SPG block", "format": "in vivo, human", "from_the_text": "Another aspect of the invention is the combination of stimulation of SPG with branches of Trigeminal nerves, or occipital nerves. There is known C-2 and 3 connection with Trigeminal nerve and SPG and likely with C1."}, "suprascapular nerve [5]": {"system": "suprascapular nerve", "experiment": "Direct suprascapular injection and subsequent fanlike injection, patient with CRPS of left arm and hand with frozen shoulder syndrome (Example 7)", "format": "in vivo, human", "settings": "lidocaine 1% (4 ml) together with methylprednisolone acetate (10 mg), direct suprascapular then fanlike injection, a few treatment sessions", "from_the_text": "A patient had severe CRPS of the left arm and hand with frozen shoulder syndrome and severe edema, allodynia coldness and nail changes involving their left hand for over 18 months. Their condition is shown in the photographs of FIGS. 6 and 7. They failed all therapies to the time of presentation."}, "[6]": {"settings": "intranasally administered; cited from earlier work"}, "suprascapular nerve [7]": {"system": "suprascapular nerve", "experiment": "Fanlike injection in the vicinity of the suprascapular nerve, patient with pain and decreased range of motion after rotator cuff repair (Example 1)", "format": "in vivo, human", "settings": "many months after torn rotator cuff repair, lidocaine 1% (3 ml)", "protocol": "A patient with pain and decreased range of motion for many months following repair of a torn rotator cuff, was treated using a fanlike injection of lidocaine 1% (3 ml) merely in the vicinity of the suprascapular nerve, hitting small fibers in the area.\nThis block differs from classic suprascapular block in that the area around the nerve was targeted and treated, rather than the nerve itself. This procedure was easier to perform than trying to block the suprascapular nerve directly, which would have been much more difficult to target or specific, direct treatment. In terms of neurostimulation, or blocking with energy sources such as light, laser, infrasound or electricity, it means that transcutaneous methods can work well by targeting the area around a major nerve, or merely within its general area of innervation, and not necessarily the nerve itself."}, "migraine": {"system": "migraine", "settings": "direct application to region of nasal epithelium overlying the SPG using a cotton swab, versus drip and spray methods; cited from earlier work"}, "saphenous nerve": {"system": "saphenous nerve", "experiment": "Saphenous nerve injection, patient with severe leg and foot pain due to surgical trauma (Example 2)", "format": "in vivo, human", "settings": "ropivacaine 0.25% (5 ml)", "protocol": "A patient with severe leg and foot pain for several years due to prior surgical trauma resulting from an initial bunionectomy and other follow-up surgeries was treated by a saphenous nerve injection of ropivacaine 0.25% (5 ml) after exquisite tenderness was noted on palpation of the saphenous nerve greater than 14 cm proximal to the level of their foot trauma. However, much of their symptomatology was in the distribution of other nerves. Indeed, they had motor dysfunction of the toes and their saphenous nerve is a purely sensory nerve. […] They could walk like they had not in many years."}, "[8]": {"settings": "Example 4, patient, metal beam impact, intranasal bupivacaine 0.5% (4 ml)"}},
  "data": [
    {"molecule": "CCCN1CCCC[C@H]1C(=O)Nc1c(C)cccc1C", "note": "(single isomer, unassigned) [S (levo)-enantiomer of ropivacaine]", "values": [
      {"measurement": "sensory blocking properties", "setting": "[1]", "result": "better sensory blocking properties"}
    ]},
    {"molecule": "CCCCN1CCCC[C@H]1C(=O)Nc1c(C)cccc1C", "note": "[S (levo)-enantiomer of bupivacaine]", "values": [
      {"measurement": "sensory blocking properties", "setting": "[1]", "result": "better sensory blocking properties"},
      {"measurement": "physiological toxicity", "setting": "[2]; compared with the corresponding R (dextro)-enantiomers", "result": "lower physiological toxicity"}
    ]},
    {"molecule": "CCCCN1CCCCC1C(=O)Nc1c(C)cccc1C", "note": "(stereo not drawn) [bupivacaine]", "values": [
      {"measurement": "relief of pain", "setting": "[3]; [8]", "result": "almost complete relief of pain"},
      {"measurement": "time to reported pain relief", "setting": "[3]; [8]", "result": "≤ 3", "unit": "min"},
      {"measurement": "ability to open mouth, eat and speak", "setting": "[3]; Example 4, patient, intranasal bupivacaine 0.5% (4 ml)", "result": "could open their mouth wide, eat normally and could speak for normal periods of time and at normal volume"},
      {"measurement": "time to reported pain relief", "setting": "[3]; Example 5, patient, four facial fractures, pain for seven years, intranasal bupivacaine 0.5% (4 ml)", "result": "≤ 1", "unit": "min"},
      {"measurement": "relief of pain", "setting": "[3]; Example 5, patient, intranasal bupivacaine 0.5% (4 ml)", "result": "complete relief of pain"},
      {"measurement": "pain management", "setting": "[3]; Example 6, patient, gunshot wound to the face, intranasal bupivacaine 0.5% (3-4 ml) monthly, several years follow up", "result": "manages their pain well"},
      {"measurement": "adverse sequela", "setting": "[3]; Example 6, intranasal bupivacaine 0.5% (3-4 ml) monthly, several years follow up", "result": "no adverse sequela"},
      {"measurement": "symptoms and hand function", "setting": "radial nerve; patient with CRPS over 20 years, fanlike distribution of radial nerve", "result": "felt dramatically better and could open and close their hand and make and maintain a fist"},
      {"measurement": "neurotrophic findings of decreased temperature, edema, allodynia, discoloration and severe restriction of range of motion", "setting": "radial nerve; patient with CRPS", "result": "decreased dramatically"},
      {"measurement": "result of subsequent SPG block", "setting": "[4]; injection of bupivacaine 0.5% to the Supratrochlear nerve", "result": "better result with SPG block subsequently"},
      {"measurement": "headache", "setting": "[4]; injection of occipital nerves with 0.5%, with SPG block", "result": "headache was further decreased with SPG block"}
    ]},
    {"molecule": "CCN(CC)CC(=O)Nc1c(C)cccc1C", "note": "[lidocaine]", "values": [
      {"measurement": "symptoms and findings of CRPS (frozen shoulder, edema, allodynia, coldness, nail changes)", "setting": "suprascapular nerve [5]", "result": "completely reversed these symptoms and findings"},
      {"measurement": "duration of action", "setting": "[6]", "result": "shorter than about one hour"},
      {"measurement": "pain and range of motion", "setting": "suprascapular nerve [7]", "result": "remarkable improvement in pain and range of motion"}
    ]},
    {"molecule": "CCCN1CCCC[C@H]1C(=O)Nc1c(C)cccc1C", "note": "[ropivacaine]", "values": [
      {"measurement": "inhibition of migraine", "setting": "migraine", "result": "most rapid and most effective inhibition of migraine"},
      {"measurement": "block of nerve fibers such as A (delta) and C sensory fibers versus motor neurons", "setting": "[1]; compared with bupivacaine", "result": "more preferentially than other neurons such as motor neurons"},
      {"measurement": "relief of pain", "setting": "saphenous nerve", "result": "almost complete relief of pain"},
      {"measurement": "sensation and strength in the distribution of other peripheral nerves, including the peroneal nerves", "setting": "saphenous nerve", "result": "normalized sensation and strength"},
      {"measurement": "time to reported pain relief", "setting": "saphenous nerve", "result": "≤ 10", "unit": "min"},
      {"measurement": "cardiovascular and central nervous system toxicity", "setting": "[2]; compared with bupivacaine", "result": "lower cardiovascular and central nervous system toxicity than bupivacaine"},
      {"measurement": "systemic toxicity profile", "setting": "[2]; compared with other similar relatively long acting potent local anesthetics", "result": "better systemic toxicity profile"}
    ]}
  ]
}
